Measured values: US20220273709A1, “DEVELOPMENT OF THERAPY FOR IMPROVING MYOCARDIAL CONTRACTION AND METHOD FOR INHIBITING CARDIOMYOCYTE DEATH” (KYUSHU UNIVERSITY, NATIONAL UNIVERSITY CORPORATION, priority 2019, published 2022)

Experiments:
[1] = tested on: inflammatory cells; myocardial cells; test: Cell death after IFNγ administration to inflammatory cells or myocardial cells; format: cell-based
myocardial fibroblasts = test: TGFβ administration to myocardial fibroblasts pretreated with IFNγ; format: cell-based
Method: The changes in expression levels of proteins when TGFβ was administered to myocardial fibroblasts pretreated with IFNγ were evaluated.
FIG. 39(a) is a western blot showing the expression levels of proteins (pSmad2, Smad2, pSmad3, and Smad3) when TGFβ was administered to myocardial fibroblasts pretreated with IFNγ (n=4). FIG. 39(b) is a graph quantifying the results of FIG. 39(a). The dose of IFNγ used for the pretreatment is 0, 1, 10, or 50 ng/mL, and the dose of TGFβ is 10 ng/mL. In the control group (CTL), neither IFNγ nor TGFβ was administered. Each graph is shown as a relative value in which the phosphorylation ratio (for example, pSmad2Smad2) in the CTL group is set to 1.0. When TGFβ was administered, Smad2 and Smad3 were phosphorylated, and the expression levels of pSmad2 and pSmad3 were increased.
FIG. 39(c) is a graph showing the expression levels of proteins (Ctgf, Col1a, and Col3a) when TGFβ was administered to myocardial fibroblasts pretreated with IFNγ (n=3 to 6). The dose of IFNγ used for the pretreatment is 0, 1, 10, or 50 ng/mL, and the dose of TGFβ is 10 ng/mL. Each graph is shown as a relative value in which the phosphorylation ratio (for example, pSmad2Smad2) in the CTL group is set to 1.0. In the graph, ** represents P<0.01, which is at a significant level with respect to the expression level of the CTL group.

[2] = tested on: primary cultured offspring rat myocardial cells; test: Stat phosphorylation in primary cultured offspring rat myocardial cells after IFNγ, IL4 or IL10; format: cell-based
Method: IFNγ, IL4 or IL10 was administered to primary cultured offspring rat myocardial cells, and the changes in phosphorylation of proteins (Stat1, Stat6, and Stat3) were evaluated.

[3] = tested on: cultured myocardial cells; test: IFN-γ stimulation of cultured myocardial cells, pPLN and p-Stat1 (SDS-PAGE); format: cell-based
Method: The cultured myocardial cells were stimulated by adding IFN-γ solutions with three different concentrations (1, 10, and 50 ng/mL), and changes in concentration of pPLN were evaluated by ^-the SDS-PAGE method.
The cultured myocardial cells were stimulated by adding 50 ng/mL of an IFN-γ solution, and a change in concentration of pPLN over time was evaluated by the SDS-PAGE method.

[4] = tested on: primary cultured myocardial fibroblasts; test: Fibrosis gene expression in myocardial fibroblasts after IFNγ, IL4 or IL10; format: cell-based; conditions: 1, 10, and 50 ng/mL, vs non-administration group (Veh)
Method: The changes in expression levels of genes (Ctgf Col1a, and Col3a) involved in fibrosis after IFNγ, IL4, or IL10 was administered to primary cultured myocardial fibroblasts were evaluated in order to investigate the mechanism by which the TGF β-Smad signaling system was inhibited due to the administration of α-GalCer/DC (number of administered cells: 3×10^6).
FIG. 38 is a graph showing changes in the expression levels of genes (Ctgf, Col1a, and Col3a) after the administration of IFNγ, IL4, or IL10 to myocardial fibroblasts. IFNγ, IL4, and IL10 were respectively administered at concentrations of 1, 10, and 50 ng/mL. Rps18 was used as an intrinsic control. “Veh” in the graphs represents a non-administration group (Vehicle).

[5] = tested on: primary cultured myocardial fibroblasts; test: Stat expression and phosphorylation in myocardial fibroblasts treated with IFNγ, IL4 or IL10; format: cell-based; conditions: vs CTL
Method: The primary cultured myocardial fibroblasts were treated with IFNγ, IL4, or IL10, and each of the expression levels of proteins (Stat1, Stat6, and Stat3) and the phosphorylation thereof were evaluated.

[6] = tested on: offspring rat myocardial cells; test: Changes in expression levels of Angpt1 due to cytokine administration; format: cell-based; conditions: vs CTL group
Method: The changes in the expression levels of an angiogenic factor Angpt1 after administration of IFNγ, IL4, or IL10 to offspring rat myocardial cells were evaluated (each n=3).

male C57BL6J mice = test: Doxorubicin-induced cardiomyopathy model mice (DOX mouse): body weight, echocardiography, NKT cells and inflammatory cytokines in myocardium; format: in vivo
Method: Doxorubicin (6 mg/kg) was intravenously administered to male
C57BL6J mice aged 10 to 11 weeks from the tail vein once every two days. That is, in a case where the day when doxorubicin was initially administered was set to Day 0, doxorubicin was injected on Day 2 and Day 4 (total of 3 times of administration). At each time point of Day 0, 7, 14, 21, and 28, weight measurement and echocardiography were performed to evaluate the amounts of NKT cells and the expression levels of inflammatory cytokines in the myocardium.

[7] = tested on: mice with DOX cardiomyopathy; test: Effect of αGalCer on DOX mice: cardiac function and inflammatory cytokines; format: in vivo; conditions: for apoptosis of myocardial cells (TUNEL staining) / left ventricular end-systolic dimension (LVDs) / left ventricular fractional shortening rate (FS): DOX group or GalCer+DOX group; for WH/TL and LV/TL: DOX group vs Control, GalCer+DOX group vs DOX group
Method: 10-week-old male C57BL/6J mice were divided into four groups of a Control group, a GalCer group, a DOX group, and a GalCer+DOX group. Hereinafter, the administration method will be described by setting the day when doxorubicin was initially administered as Day 0 (FIG. 4(a)).
PBS (phosphate buffered saline) was intraperitoneally administered (ip) and physiological saline was intravenously administered to the mice of the Control group on Day-7 (7 days before Day 0).
αGalCer (0.1 μg/g) was intraperitoneally administered (ip) to the mice of the GalCer group on Day-7, and physiological saline was intravenously administered thereto on Days 0, 2, and 4.
PBS was intraperitoneally administered (ip) to the mice of the DOX group on Day-7, and doxorubicin (6 mg/kg) was intravenously administered thereto on Days 0, 2, and 4.
αGalCer (0.1 μg/g) was intraperitoneally administered (ip) to the mice of the Galfer+DOX group on Day-7, and doxorubicin (6 mg/kg) was intravenously administered thereto on Days 0, 2, and 4.
The body weight, the blood pressure, the echocardiogram, the organ weight, the expression level of Vα14Jα18, the cardiac function, and inflammatory cytokines of each mouse at the time point of Day 14 were evaluated. Echocardiography was performed by anesthetizing mice with pentobarbital using an ultrasonic recording device EUB-8000 (trade name of Hitachi Medical Corporation). The left ventricular end-diastolic dimension and the left ventricular systolic end-systolic dimension were measured from the echo image, and the left ventricular fractional shortening rate serving as an index of the left ventricular contractility was calculated by an expression of “(left ventricular end-diastolic dimension—left ventricular systolic end-systolic dimension)left ventricular end-diastolic dimension×100”.

Balb/c mice = test: Difference between α-GalCer administration and α-GalCer/DC administration (western blotting of Stat1, Stat6); format: in vivo; conditions: only α-GalCer administered, 4 days
Method: The differences in expression levels of proteins Stat1 and Stat6 and degrees of phosphorylation in a case where only α-GalCer was administered and in a case where DC was administered as a carrier (that is, α-GalCer/DC was administered, the number of administered cells: 3×10^6) were evaluated by western blotting.
In the test, α-GalCer alone or α-GalCer/DC was administered to the Balb/c mice, and the expression level of each protein in the myocardium 4 days after the administration was evaluated by western blotting.

[8] = tested on: mice with DOX cardiomyopathy; test: Effect of αGalCer on DOX mice: cardiac function and inflammatory cytokines; format: in vivo; conditions: Days 7 and 14
humans = conditions: systemically administered to humans; cited from earlier work
[9] = IFNγ pretreatment 1, 10, or 50 ng/mL, then TGFβ 10 ng/mL
[10] = doxorubicin 6 mg/kg iv Days 0, 2, 4, Days 0 to 28

## IFNγ: interferon (IFN)-γ, cytokine added to cultured cells
[1]
  cell death of inflammatory cells: easily caused cell death
Myocardial fibroblasts; [9]
  increase in expression levels of Ctgf, Col1a, and Col3a due to TGFβ: inhibited in a dose-dependent manner
  phosphorylation ratio of Smad2 and Smad3: decreased in a dose-dependent manner
[2]
  phosphorylation of Stat1 by αGalCer/DC observed in myocardial tissues, reproduction in cultured myocardial cells: reproduced
[3]; IFN-γ 50 ng/mL
  p-Stat1 over time: increased immediately after the stimulation
  pPLN over time: phosphorylated with a slight delay
[3]; IFN-γ 1, 10, and 50 ng/mL
  phosphorylation of PLN: phosphorylated
[4]
  expression levels of genes (Ctgf, Col1a, and Col3a): significantly decreased in a dose-dependent manner
[5]
  expression levels and phosphorylation of Stat1: increased
[6]
  expression levels of Angpt1: increased in a dose-dependent manner

## COc1cccc2c1C(=O)c1c(O)c3c(c(O)c1C2=O)C[C@@](O)(C(=O)CO)C[C@@H]3O[C@H]1C[C@H](N)[C@H](O)[C@H](C)O1 [doxorubicin]
Male C57BL6J mice; Day 7, vs Control
  expression level of IL-6: significantly increased
  expression levels of IL-1β and TNF-α: decreased
Male C57BL6J mice; Day 14, vs doxorubicin non-administration group
  expression levels of IL-1β, IL-6, and TNF-α: all significantly increased
Male C57BL6J mice; Days 7 and 14, Control set to 1
  expression level of Vα14Jα18: decreased
Male C57BL6J mice; [10]
  body weight (BW): reduced after Day 7 tended to gradually increase
  left ventricular fractional shortening rate (FS): not improved
[7]
  apoptosis of myocardial cells (TUNEL staining): observed
[7]; Day 14
  left ventricular end-systolic dimension (LVDs): large
  left ventricular fractional shortening rate (FS): small
  WH/TL and LV/TL: significantly reduced

## CCCCCCCCCCCCCCCCCCCCCCCCCC(=O)N[C@@H](CO[C@H]1O[C@H](CO)[C@H](O)[C@H](O)[C@H]1O)[C@H](O)[C@H](O)CCCCCCCCCCCCCC [αGalCer, α-Galactosylceramide]
Balb/c mice
  activation reaction of Stat1 in the myocardium: extremely weak
  dose dependence of Stat1 activation: not observed
[8]
  expression level of IFNγ: increased
  expression levels of inflammatory cytokines: without decreasing
humans
  liver damage: serious liver damage
[7]
  apoptosis of myocardial cells (TUNEL staining): inhibited
[7]; Day 14
  left ventricular end-systolic dimension (LVDs): improved to the same extent as the mice in the other groups
  left ventricular fractional shortening rate (FS): improved to the same extent as the mice in the other groups
  WH/TL and LV/TL: improved
[7]; αGalCer 0.1 μg/g ip Day-7, mice with DOX cardiomyopathy, Day 14
  increase of expression level of Vα14Jα18: approximately 10.6 times

## TGFβ
Myocardial fibroblasts; TGFβ 10 ng/mL, no pretreatment
  expression levels of Ctgf, Col1a, and Col3a: increased
  expression levels of pSmad2 and pSmad3: increased

B1: IL4: interleukin-4, cytokine added to cultured cells (protein, UniProt P05112 25-153, looked up)
Interleukin-4: HKCDITLQEIIKTLNSLTEQKTLCTELTVTDIFAASKNTTEKETFCRAATVLRQFYSHHEKDTRCLGATAQQFHRHKQLIRFLKRLDRNLWGLAGLNSCPVKEANQSTLENFLERLKTIMREKYSKCSS
[2]
  phosphorylation of Stat1 by αGalCer/DC observed in myocardial tissues, reproduction in cultured myocardial cells: reproduced
[4]
  expression levels of genes (Ctgf, Col1a, and Col3a): the same as those in the non-administration group
[5]
  phosphorylation of Stat6: increased in a dose-dependent manner
[6]
  expression levels of Angpt1: not increased

B2: IFNγ: interferon (IFN)-γ, cytokine added to cultured cells (protein, UniProt P01579 24-161, looked up)
Interferon gamma: QDPYVKEAENLKKYFNAGHSDVADNGTLFLGILKNWKEESDRKIMQSQIVSFYFKLFKNFKDDQSIQKSVETIKEDMNVKFFNSNKKKRDDFEKLTNYSVTDLNVQRKAIHELIQVMAELSPAAKTGKRKRSQMLFRG
[1]
  cell death of myocardial cells: did not cause cell death

B3: IL10: interleukin-10, cytokine added to cultured cells (protein, UniProt P22301 19-178, looked up)
Interleukin-10: SPGQGTQSENSCTHFPGNLPNMLRDLRDAFSRVKTFFQMKDQLDNLLLKESLLEDFKGYLGCQALSEMIQFYLEEVMPQAENQDPDIKAHVNSLGENLKTLRLRLRRCHRFLPCENKSKAVEQVKNAFNKLQEKGIYKAMSEFDIFINYIEAYMTMKIRN
[2]
  phosphorylation of Stat1 by αGalCer/DC observed in myocardial tissues, reproduction in cultured myocardial cells: not reproduced
[4]
  expression levels of genes (Ctgf, Col1a, and Col3a): the same as those in the non-administration group
[5]
  phosphorylation of Stat6: not found
[6]
  expression levels of Angpt1: not increased
